Assay results taken from patent US7767815B2, “Fused tricyclic mGluR1 antagonists as therapeutic agents” (Schering Corporation, priority 2005, dated 2010).

molecular target: T1, hmGluR1 receptor (Homo sapiens, UniProt Q13255); test: mGluR1 IC50 determination, FLIPR intracellular calcium mobilization against Quisqualate; format: cell-based; settings: CHO cell line stably expressing hmGluR1; against Quisqualate 1 μM (EC80); compounds added 10 minutes before; read-out: mGluR1 IC50
T1 construct: expressed in transfected cells; host or cells: CHO
T1 sequence (Q13255 19-1194): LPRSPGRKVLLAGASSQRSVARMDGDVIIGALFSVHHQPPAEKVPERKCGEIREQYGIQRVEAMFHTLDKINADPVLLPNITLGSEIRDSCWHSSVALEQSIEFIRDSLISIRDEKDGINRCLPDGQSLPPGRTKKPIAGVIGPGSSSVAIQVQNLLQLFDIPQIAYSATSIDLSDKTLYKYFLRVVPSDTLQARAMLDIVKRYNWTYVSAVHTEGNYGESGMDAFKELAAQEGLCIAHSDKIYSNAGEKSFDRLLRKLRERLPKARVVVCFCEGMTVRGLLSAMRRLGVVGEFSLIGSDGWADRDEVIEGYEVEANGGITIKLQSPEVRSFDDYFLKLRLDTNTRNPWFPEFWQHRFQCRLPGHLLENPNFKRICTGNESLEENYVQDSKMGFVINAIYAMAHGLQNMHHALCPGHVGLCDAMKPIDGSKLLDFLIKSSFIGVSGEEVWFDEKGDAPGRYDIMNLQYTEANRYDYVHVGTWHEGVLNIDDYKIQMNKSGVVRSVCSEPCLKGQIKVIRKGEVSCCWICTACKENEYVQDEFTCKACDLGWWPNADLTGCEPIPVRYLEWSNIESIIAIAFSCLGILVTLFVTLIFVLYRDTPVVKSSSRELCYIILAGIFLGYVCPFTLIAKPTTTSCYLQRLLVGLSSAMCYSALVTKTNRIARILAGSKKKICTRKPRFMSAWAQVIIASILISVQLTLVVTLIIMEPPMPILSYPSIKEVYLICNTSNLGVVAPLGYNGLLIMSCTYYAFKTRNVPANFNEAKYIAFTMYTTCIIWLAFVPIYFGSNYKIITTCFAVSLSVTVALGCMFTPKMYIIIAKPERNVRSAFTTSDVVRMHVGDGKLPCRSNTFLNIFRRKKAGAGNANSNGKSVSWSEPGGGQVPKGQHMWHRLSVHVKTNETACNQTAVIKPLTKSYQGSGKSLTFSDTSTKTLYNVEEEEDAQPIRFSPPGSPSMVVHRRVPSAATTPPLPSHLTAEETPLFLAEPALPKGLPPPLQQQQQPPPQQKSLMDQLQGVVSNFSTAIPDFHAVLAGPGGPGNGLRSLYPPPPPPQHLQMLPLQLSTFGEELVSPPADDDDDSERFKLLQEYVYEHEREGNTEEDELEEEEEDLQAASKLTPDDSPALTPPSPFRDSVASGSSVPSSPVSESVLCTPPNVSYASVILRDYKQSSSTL
Procedure: A CHO cell line stably expressing hmGluR1 receptor was established. One day prior to assay, cells were split in growth media at concentration of 50,000 cells/well in a volume of 100 μl and seeded into black clear-bottom 96-well plates. After two to six hours, when cells were well attached to the plate, growth medium was replaced with assay medium (100 μL) consisting of DMEM high glucose, supplemented with GPT (1 U/mL) and sodium pyruvate, 1 mM. Following overnight incubation, medium was discarded and cells were loaded for 2 hours with dye from the Calcium 3 Assay Reagent Kit (Molecular Devices, # R8033), prepared according to manufacturers' instructions. […] Test compounds were added 10 minutes before Quisqualate.

Compound	IC50
COc1ccnc2sc3c(=O)n(-c4ccc(Br)cc4)ccc3c12 [16E]	4.8 nM
COc1ccnc2sc3c(=O)n(-c4ccc(Cl)cc4)ccc3c12 [16B]	3.4 nM
COc1ccc(-n2ccc3c(sc4nccc(NC5CC5)c43)c2=O)cc1F [19AV]	9.8 nM
COc1ccnc2sc3c(=O)n(-c4ccc(C)cc4)ccc3c12 [16C]	3.9 nM

same assay, conditions: CHO cell line stably expressing hmGluR1; against Quisqualate 1 μM (EC80); compounds added 10 minutes before; read-out: mGluR1 IC50 rating

Compound	IC50
COc1ccc(-n2ccc3c(sc4nccc(OC)c43)c2=O)cc1F [16I]	< 20 nM
COc1ccnc2sc3c(=O)n(-c4ccc5scnc5c4)ccc3c12 [16G]	< 20 nM
Cc1ccc(-n2ccc3c(sc4nccc(O)c43)c2=O)cc1 [17C]	100 to 1000 nM
COc1ccnc2sc3c(=O)n(-c4ccc(Br)cc4)ccc3c12 [16E]	< 20 nM
COc1ccnc2sc3c(=O)n(-c4ccc(Cl)cc4)ccc3c12 [16B]	< 20 nM
COc1ccnc2sc3c(=O)n(-c4ccc5ncsc5c4)ccc3c12 [16F]	20 to 100 nM
COc1ccnc2sc3c(=O)n(-c4ccc5c(c4)OCO5)ccc3c12 [16O]	< 20 nM
COc1ccnc2sc3c(=O)n(-c4cccc(C)c4)ccc3c12 [16T]	< 20 nM
O=c1c2sc3nccc(O)c3c2ccn1-c1ccc(Cl)cc1 [17B]	100 to 1000 nM
COc1ccnc2sc3c(=O)n(-c4ccc5c(c4)OCCO5)ccc3c12 [16P]	20 to 100 nM
COc1ccnc2sc3c(=O)n(-c4ccccc4)ccc3c12 [16M]	< 20 nM
COc1ccnc2sc3c(=O)n(-c4ccccc4Cl)ccc3c12 [16U]	20 to 100 nM
COc1ccnc2sc3c(=O)n(-c4cccc(Cl)c4)ccc3c12 [16R]	< 20 nM
COc1ccnc2sc3c(=O)n(-c4ccc(C#N)cc4)ccc3c12 [16X]	20 to 100 nM
COc1ccnc2sc3c(=O)n(-c4ccc(C)cc4)ccc3c12 [16C]	< 20 nM
COc1ccnc2sc3c(=O)n(-c4ccc5occc5c4)ccc3c12 [16Q]	< 20 nM
COc1ccnc2sc3c(=O)n(-c4ccc(F)cc4)ccc3c12 [16H]	< 20 nM
CN(C)c1ccnc2sc3c(=O)n(-c4ccc(O)cc4)ccc3c12 [9H]	< 20 nM

Further lines, results first:

IC50	Compound
20 to 100 nM	COc1ccc(-n2ccc3c(sc4nccc(NCCCCCO)c43)c2=O)cc1 [19AH]
20 to 100 nM	Cc1ccc(-n2ccc3c(sc4nccc(NCCO)c43)c2=O)cc1 [19L]
20 to 100 nM	C#CCNc1ccnc2sc3c(=O)n(-c4ccc(OC)cc4)ccc3c12 [19X]
20 to 100 nM	O=c1c2sc3nccc(NCC(F)(F)F)c3c2ccn1-c1ccc(Cl)cc1 [19I]
20 to 100 nM	COCCNc1ccnc2sc3c(=O)n(-c4ccc(Cl)cc4)ccc3c12 [19G]
20 to 100 nM	O=c1c2sc3nccc(NC4CC4)c3c2ccn1-c1ccc2scnc2c1 [19AR]
100 to 1000 nM	C#CCNc1ccnc2sc3c(=O)n(-c4ccc(OC)c(F)c4)ccc3c12 [19AO]
20 to 100 nM	Cc1ccc(-n2ccc3c(sc4nccc(NCC(F)(F)F)c43)c2=O)cc1 [19R]
20 to 100 nM	CCNc1ccnc2sc3c(=O)n(-c4ccc5scnc5c4)ccc3c12 [19AQ]
20 to 100 nM	COc1ccc(-n2ccc3c(sc4nccc(NCCCO)c43)c2=O)cc1 [19Y]
20 to 100 nM	CCNc1ccnc2sc3c(=O)n(-c4ccc(C#N)cc4)ccc3c12 [19BB]
20 to 100 nM	CCNc1ccnc2sc3c(=O)n(-c4ccc(OC)cc4F)ccc3c12 [19BG]
20 to 100 nM	COc1ccc(-n2ccc3c(sc4nccc(NCCCCO)c43)c2=O)cc1 [19AA]
20 to 100 nM	C#CCNc1ccnc2sc3c(=O)n(-c4ccc(F)cc4)ccc3c12 [19AN]
< 20 nM	C#CCNc1ccnc2sc3c(=O)n(-c4ccc(C)cc4)ccc3c12 [19AG]
< 20 nM	C#CCNc1ccnc2sc3c(=O)n(-c4ccc(Br)cc4)ccc3c12 [19AZ]
< 20 nM	COc1ccc(-n2ccc3c(sc4nccc(NC5CC5)c43)c2=O)cc1F [19AV]
< 20 nM	C#CCNc1ccnc2sc3c(=O)n(-c4ccc(Cl)cc4)ccc3c12 [19AE]

IC50	Compound
20 to 100 nM	COCCNc1ccnc2sc3c(=O)n(-c4ccc(C)cc4)ccc3c12 [19C]
20 to 100 nM	CCNc1ccnc2sc3c(=O)n(-c4ccc(F)cc4)ccc3c12 [19AL]
< 20 nM	COc1ncnc2sc3c(=O)n(-c4ccc(C)cc4)ccc3c12 [23A]
20 to 100 nM	Cc1ccc(-n2ccc3c(sc4nccc(N)c43)c2=O)cc1 [19AC]
20 to 100 nM	COCCCNc1ccnc2sc3c(=O)n(-c4ccc(Cl)cc4)ccc3c12 [19H]
20 to 100 nM	N#Cc1ccc(-n2ccc3c(sc4nccc(NC5CC5)c43)c2=O)cc1 [19BC]
20 to 100 nM	O=c1c2sc3nccc(NC4CC4)c3c2ccn1-c1ccc(F)cc1 [19AM]
20 to 100 nM	Cc1ccc(-n2ccc3c(sc4nccc(NC[C@@H](C)O)c43)c2=O)cc1 [19M]
< 20 nM	O=c1c2sc3nccc(NCCO)c3c2ccn1-c1ccc(Cl)cc1 [19F]
> 1000 nM	COCCNc1ccnc2sc3c(=O)n(-c4ccc(O)cc4)ccc3c12 [19J]
20 to 100 nM	COc1ccc(-n2ccc3c(sc4nccc(NCC(F)(F)F)c43)c2=O)cc1 [19S]
20 to 100 nM	C[C@@H](O)CNc1ccnc2sc3c(=O)n(-c4ccc(Cl)cc4)ccc3c12 [19E]
20 to 100 nM	COCCCNc1ccnc2sc3c(=O)n(-c4ccc(OC)cc4)ccc3c12 [19W]
20 to 100 nM	COc1ncnc2sc3c(=O)n(-c4ccc(Cl)cc4)ccc3c12 [23C]
< 20 nM	COc1ccc(-n2ccc3c(sc4nccc(N(C)N)c43)c2=O)cc1 [19U]
20 to 100 nM	COc1ccc(-n2ccc3c(sc4nccc(NC5CC5)c43)c2=O)c(F)c1 [19BH]
< 20 nM	CCNc1ccnc2sc3c(=O)n(-c4ccc(OC)c(F)c4)ccc3c12 [19AU]
100 to 1000 nM	COc1ccc(-n2ccc3c(sc4ncnc(OC)c43)c2=O)cc1 [23B]
